For 28 molecules, IC50, Ratio IC50 and Time results are on record in ChEMBL document CHEMBL1777779, “Discovery of novel quaternary ammonium derivatives of (3R)-quinuclidinyl carbamates as potent and long acting muscarinic antagonists” (Bioorg Med Chem Lett, 2011).

SMILES strings stand for the structures. pIC50: −log10 of the molar value.

The term pIC50 denotes the negative decadic logarithm of the IC50, by convention in mol/L. The low end stands for a high IC50, the high end for a low IC50.

Assay [1] addresses Muscarinic acetylcholine receptor M3 (Homo sapiens, UniProt P20309). Briefly: Displacement of [3H]NMS from human muscarinic M3 receptor expressed in CHO-K1 cells after 1 hr by scintillation counting. The assay is classed as cell-based.
For assay [2], the target named is Muscarinic acetylcholine receptor M1 and M3 (Homo sapiens) (UniProt P20309+P11229). Put plainly: Selectivity ratio of IC50 for human muscarinic M1 receptor to IC50 for human muscarinic M3 receptor.
Muscarinic acetylcholine receptor M1 and M3 (Homo sapiens), sequence (P20309 whole entry, looked up, one chain of several): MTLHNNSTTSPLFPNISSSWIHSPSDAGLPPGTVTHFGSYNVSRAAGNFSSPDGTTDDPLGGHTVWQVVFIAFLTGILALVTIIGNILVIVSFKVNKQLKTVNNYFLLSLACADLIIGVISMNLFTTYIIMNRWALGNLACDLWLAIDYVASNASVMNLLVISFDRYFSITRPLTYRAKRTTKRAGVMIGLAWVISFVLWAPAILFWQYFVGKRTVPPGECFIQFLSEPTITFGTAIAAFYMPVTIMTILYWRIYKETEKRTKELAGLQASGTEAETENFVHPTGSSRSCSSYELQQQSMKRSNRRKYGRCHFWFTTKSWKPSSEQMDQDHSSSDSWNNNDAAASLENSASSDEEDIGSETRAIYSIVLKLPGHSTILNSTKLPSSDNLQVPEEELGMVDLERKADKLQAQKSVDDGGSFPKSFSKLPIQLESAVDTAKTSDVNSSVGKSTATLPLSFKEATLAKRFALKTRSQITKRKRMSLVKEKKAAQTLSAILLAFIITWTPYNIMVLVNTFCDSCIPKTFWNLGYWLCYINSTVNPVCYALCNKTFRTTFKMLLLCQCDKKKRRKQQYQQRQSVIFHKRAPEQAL
For assay [3], the target named is Muscarinic acetylcholine receptors; M2 & M3 (Homo sapiens) (UniProt P20309+P08172). Briefly: Selectivity ratio of IC50 for human muscarinic M2 receptor to IC50 for human muscarinic M3 receptor.
Muscarinic acetylcholine receptors; M2 & M3 (Homo sapiens), sequence (P20309 whole entry, looked up, one chain of several): as above
Assay [4] deals with T1, Muscarinic acetylcholine receptor M2 (Homo sapiens, UniProt P08172).
T1 sequence (P08172 whole entry): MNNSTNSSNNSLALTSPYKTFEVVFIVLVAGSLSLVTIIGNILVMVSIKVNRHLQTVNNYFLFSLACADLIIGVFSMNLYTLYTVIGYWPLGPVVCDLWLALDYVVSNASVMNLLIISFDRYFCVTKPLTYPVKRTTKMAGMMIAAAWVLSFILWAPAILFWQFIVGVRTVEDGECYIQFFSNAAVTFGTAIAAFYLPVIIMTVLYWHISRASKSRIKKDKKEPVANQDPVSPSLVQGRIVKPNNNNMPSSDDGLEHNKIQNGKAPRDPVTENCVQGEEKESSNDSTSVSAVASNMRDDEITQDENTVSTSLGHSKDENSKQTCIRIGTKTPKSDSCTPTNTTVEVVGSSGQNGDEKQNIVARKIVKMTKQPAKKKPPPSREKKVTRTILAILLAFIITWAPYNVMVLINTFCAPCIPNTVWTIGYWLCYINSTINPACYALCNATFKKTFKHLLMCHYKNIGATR
Put plainly: Displacement of [3H]NMS from human muscarinic M2 receptor expressed in CHO-K1 cells after 1 hr by scintillation counting. The assay is classed as cell-based.

Assay [5] concerns the target T2, Muscarinic acetylcholine receptor M1 (Homo sapiens, UniProt P11229).
T2 sequence (P11229 whole entry): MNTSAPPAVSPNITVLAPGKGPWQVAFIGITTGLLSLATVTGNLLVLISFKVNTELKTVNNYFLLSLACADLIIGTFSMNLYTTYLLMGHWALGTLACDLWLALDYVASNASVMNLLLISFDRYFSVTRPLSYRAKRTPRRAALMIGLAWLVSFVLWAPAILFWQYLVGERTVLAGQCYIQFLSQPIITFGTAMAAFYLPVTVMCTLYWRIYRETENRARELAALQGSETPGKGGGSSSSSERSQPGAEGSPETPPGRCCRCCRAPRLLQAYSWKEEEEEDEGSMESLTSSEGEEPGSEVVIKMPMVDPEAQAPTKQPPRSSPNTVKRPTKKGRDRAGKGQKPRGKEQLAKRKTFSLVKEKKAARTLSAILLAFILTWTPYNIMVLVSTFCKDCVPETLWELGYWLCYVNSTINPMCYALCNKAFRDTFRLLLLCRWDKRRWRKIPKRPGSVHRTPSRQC
Put plainly: Displacement of [3H]NMS from human muscarinic M1 receptor expressed in CHO-K1 cells after 1 hr by scintillation counting. The assay is classed as cell-based. In general terms: Displacement assays read how much labelled ligand stays bound in the presence of the test substance.

The next assay relates to Cavia porcellus. Briefly: Inhibition of acetylcholine-induced bronchospasm in anesthetized Dunkin-Hartley guinea pig assessed as time required to recover 50% of maximum inhibitory effect at 1 mg/ml administered via nebulizer. The assay is classed as functional.

Muscarinic acetylcholine receptor M3, sequence (P20309 whole entry): as the sequence (P20309 whole entry, looked up, one chain of several) above

As to `CCCCCN(C(=O)O[C@H]1CN2CCC1CC2)c1ccccc1`, the pIC50 in assay [1] is 8.77; in assay [4], 7.87; in assay [5] it was 9.10. Also, the Ratio IC50 was found to be 0.5 in assay [2] and 8 in assay [3].
As for `O=C(O[C@H]1C[N+]2(CCCc3cccs3)CCC1CC2)N(Cc1ccccc1)c1ccccc1.[Br-]`, the pIC50 in assay [1] was 9.22; in assay [4] it was 8.12; in assay [5], 8.85. Also, the Time in the assay with Cavia porcellus was greater than 6 h. Moreover, the Ratio IC50 was determined as 2.3 in assay [2] and 12.7 in assay [3].
Consider `O=C(O[C@H]1CN2CCC1CC2)N(Cc1ccccc1)c1ccc(F)cc1`, for which the pIC50 is 7.82 in assay [1], 6.94 in assay [4] and 8.08 in assay [5]. In addition, the Ratio IC50 in assay [2] came to 0.5; in assay [3] it was 7.7.
For the molecule `CCCCN(C(=O)O[C@H]1C[N+]2(CCCc3ccccc3)CCC1CC2)c1ccccc1`, the pIC50 in assay [1] was 9.10; in assay [4], 7.75; in assay [5] it was 8.60. Moreover, the Ratio IC50 was found to be 3.1 in assay [2] and 22.1 in assay [3].
For `O=C(O[C@H]1CN2CCC1CC2)N(Cc1ccsc1)c1ccccc1`, the figures for the pIC50 in assay [1], in assay [4] and in assay [5] were 9.00, 8.33 and 9.40, respectively. The Time with Cavia porcellus was less than 4 h. Besides, the results for the Ratio IC50 in assay [2] and in assay [3] were 0.4 and 4.7, respectively.
`Cc1cccc(N(Cc2cc(F)c(F)cc2F)C(=O)O[C@H]2C[N+]3(CCOc4ccccc4)CCC2CC3)c1.[Br-]`: the pIC50 in assay [1] was 8.92; in assay [4] it was 7.55; in assay [5], 8.62. In addition, the Time with Cavia porcellus was less than 6 h. For the same molecule, the Ratio IC50 was 2 in assay [2] and 23.3 in assay [3].
For `O=C(O[C@H]1CN2CCC1CC2)N1CCc2ccccc2[C@@H]1c1ccccc1` [SOLIFENACIN SUCCINATE], the results for the negative logarithm of the IC50 (pIC50) in assay [1], in assay [4] and in assay [5] were 6.88, 6.24 and 7.20, respectively. In addition, the Ratio IC50 in assay [2] is 0.5; in assay [3], 4.4.
The like results for `O=C(O[C@H]1CN2CCC1CC2)N(Cc1cccs1)Cc1cccs1` were, in that order, 8.23, 7.64, 8.62, 0.4 and 3.8.
Take `O=C(O[C@H]1C[N+]2(CCCc3cccs3)CCC1CC2)N(Cc1ccsc1)c1ccccc1.[Br-]`: the pIC50 in assay [1] was 9.22; in assay [4] it was 8.08; in assay [5], 8.70. In addition, the Time in the assay on Cavia porcellus was greater than 6 h. Also, the values for the Ratio IC50 in assay [2] and in assay [3] were 3.3 and 14, respectively.
As to `O=C(O[C@H]1C[N+]2(CCOc3ccccc3)CCC1CC2)N(Cc1ccccc1)c1ccccc1.[Br-]`, the pIC50 in assay [1] is 9.00; in assay [4] it was 8.41; in assay [5] it was 8.77. Besides, the Time with Cavia porcellus was greater than 6 h. In addition, the Ratio IC50 in assay [2] stood at 1.7; in assay [3] it was 3.9.
Turning to `Cc1cccc(N(Cc2cc(F)c(F)cc2F)C(=O)O[C@H]2C[N+]3(CCCc4ccccc4)CCC2CC3)c1.[Br-]`, the pIC50 is 9.05 in assay [1], 7.53 in assay [4] and 8.52 in assay [5]. Further, the Time in the assay with Cavia porcellus was less than 6 h. For the same molecule, the Ratio IC50 in assay [2] turned out to be 3.3; in assay [3], 33.1.
Regarding `Cc1cccc(N(Cc2cc(F)c(F)cc2F)C(=O)O[C@H]2CN3CCC2CC3)c1`, the values for the pIC50 in assay [1], in assay [4] and in assay [5] were 8.85, 7.34 and 9.00, respectively. The values for the Ratio IC50 in assay [2] and in assay [3] were 0.7 and 32.7, respectively.
The like results for `O=C(O[C@H]1CN2CCC1CC2)N(Cc1cccc(F)c1)c1cccc(F)c1` were, in that order, 8.62, 7.57, 8.82, 0.6 and 11.2.
For `O=C(O[C@H]1CN2CCC1CC2)N(c1ccccc1)c1ccccc1` the same measures were 6.10, 5.56, 6.50, 0.4 and 3.5.
On to `O=C(O[C@H]1C[N+]2(CCc3ccccc3)CCC1CC2)N(Cc1ccccc1)c1ccccc1.[Br-]`, for which the pIC50 in assay [1] is 7.75; in assay [4], 7.29; in assay [5] it was 7.82. In addition, in the assay on Cavia porcellus, the Time was less than 2 h. Moreover, the Ratio IC50 came out at 0.85 in assay [2] and 2.9 in assay [3].
With `CCCCN(C(=O)O[C@H]1C[N+]2(CCc3ccccc3)CCC1CC2)c1ccccc1`, the results for the pIC50 in assay [1], in assay [4] and in assay [5] were 7.72, 6.92 and 7.48, respectively. Further, the Ratio IC50 turned out to be 1.7 in assay [2] and 6.3 in assay [3].
Consider `CCCCN(C(=O)O[C@H]1CN2CCC1CC2)c1ccccc1`, for which the pIC50 is 8.37 in assay [1], 7.64 in assay [4] and 8.96 in assay [5]. For the same molecule, the Time in the assay with Cavia porcellus was less than 1 h. The results for the Ratio IC50 in assay [2] and in assay [3] were 0.2 and 5.3, respectively.
For the molecule `C[N+]12CCC(CC1)[C@@H](OC(=O)N(Cc1cccs1)c1ccccc1)C2`, the pIC50 was 7.73 in assay [1], 7.48 in assay [4] and 8.04 in assay [5]. Moreover, the Ratio IC50 in assay [2] is 0.5; in assay [3], 1.8.
With `O=C(O[C@H]1CN2CCC1CC2)N(Cc1cc(F)c(F)c(F)c1)c1cccc(F)c1` [TARAFENACIN], the values for the pIC50 in assay [1], in assay [4] and in assay [5] were 8.82, 7.01 and 9.05, respectively. In addition, the Ratio IC50 in assay [2] is 0.6; in assay [3] it was 64.9.
With `O=C(O[C@H]1C[N+]2(CCOc3ccccc3)CCC1CC2)N(Cc1cc(F)c(F)c(F)c1)c1cccc(F)c1.[Br-]`, the results for the pIC50 in assay [1], in assay [4] and in assay [5] were 9.22, 7.84 and 8.96, respectively. Also, the Time in the assay on Cavia porcellus was greater than 6 h. Besides, the Ratio IC50 was 1.8 in assay [2] and 24 in assay [3].
Take `O=C(O[C@H]1C[N+]2(CCCc3ccccc3)CCC1CC2)N(Cc1ccccc1)c1ccccc1.[Br-]`: the pIC50 in assay [1] is 9.52; in assay [4] it was 8.40; in assay [5] it was 8.82. Moreover, the Time in the assay on Cavia porcellus was greater than 6 h. Besides, the Ratio IC50 in assay [2] stood at 5; in assay [3] it was 13.3.
Turning to `CCCN(C(=O)O[C@H]1CN2CCC1CC2)c1ccccc1`, the pIC50 in assay [1] was 7.15; in assay [4], 6.46; in assay [5] it was 7.57. Besides, the Ratio IC50 in assay [2] worked out at 0.4; in assay [3], 4.9.
As to `CC(C)N(C(=O)O[C@H]1CN2CCC1CC2)c1ccccc1`, the pIC50 in assay [1] was 6.18; in assay [4] it was 5.86; in assay [5], 6.37. Besides, the Ratio IC50 amounted to 0.6 in assay [2] and 2.1 in assay [3].
As to `CCCCN(Cc1cccs1)C(=O)O[C@H]1CN2CCC1CC2`, the pIC50 in assay [1] was 7.75; in assay [4], 7.12; in assay [5], 9.10. Moreover, the Ratio IC50 in assay [2] was 0.04; in assay [3], 4.3.
With `Cc1ccc(N(Cc2ccccc2)C(=O)O[C@H]2CN3CCC2CC3)cc1`, the pIC50 in assay [1] was 7.13; in assay [4], 6.71; in assay [5], 7.40. The results for the Ratio IC50 in assay [2] and in assay [3] were 0.5 and 2.6, respectively.
The like results for `O=C(O[C@H]1CN2CCC1CC2)N(Cc1ccccc1)Cc1cccs1` were, in that order, 7.65, 7.05, 8.06, 0.4 and 3.95.
For `O=C(O[C@H]1CN2CCC1CC2)N(CCc1ccccc1)c1ccccc1`, the pIC50 was 8.44 in assay [1], 7.38 in assay [4] and 9.00 in assay [5]. In addition, the Ratio IC50 in assay [2] was found to be 0.3; in assay [3], 11.7.
On to `O=C(Nc1ccccc1-c1ccccc1)OC12CCN(CC1)CC2`, for which the pIC50 in assay [1] is 8.22; in assay [4], 7.84; in assay [5], 8.52. Moreover, the Ratio IC50 in assay [2] is 0.5; in assay [3], 2.4.
